Laboratory results as given in US20170354639A1, “DITERPENOID DERIVATIVES AND METHODS OF USE THEREOF” (Biogen MA Inc., priority 2014, published 2017).
pEC50: −log10 of the molar value.

Target: Nrf2-Keap1 (Homo sapiens, UniProt Q14145)
Test: DiscoveRx PathHunter Nrf2-Keap1 nuclear translocation functional assay (agonist format)
Type: cell-based
Settings: 10 concentrations, 3-fold serial dilutions, 30 μM top concentration, in duplicate; agonist mode; normalized to CDDO methyl ester and vehicle

Nrf2-Keap1, sequence (Q14145 whole entry): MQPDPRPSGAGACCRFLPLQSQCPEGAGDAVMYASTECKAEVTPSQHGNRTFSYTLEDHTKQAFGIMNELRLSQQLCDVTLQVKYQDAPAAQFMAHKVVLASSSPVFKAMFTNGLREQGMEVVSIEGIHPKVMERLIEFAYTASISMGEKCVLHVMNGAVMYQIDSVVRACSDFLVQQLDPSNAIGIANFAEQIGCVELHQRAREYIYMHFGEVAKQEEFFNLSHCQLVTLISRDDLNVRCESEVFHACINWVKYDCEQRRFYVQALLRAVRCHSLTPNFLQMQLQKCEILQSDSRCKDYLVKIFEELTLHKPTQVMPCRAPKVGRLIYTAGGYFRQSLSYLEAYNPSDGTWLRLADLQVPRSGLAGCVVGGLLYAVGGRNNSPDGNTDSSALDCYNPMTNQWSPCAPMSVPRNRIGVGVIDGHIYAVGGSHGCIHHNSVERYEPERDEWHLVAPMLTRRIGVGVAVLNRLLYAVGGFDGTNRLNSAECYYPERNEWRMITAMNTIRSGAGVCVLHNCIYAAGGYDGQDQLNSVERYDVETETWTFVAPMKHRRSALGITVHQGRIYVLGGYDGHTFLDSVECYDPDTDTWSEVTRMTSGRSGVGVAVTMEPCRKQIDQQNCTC

pEC50: < 5.70
Structure (SMILES): CC1=CC[C@@H]2[C@@H](C)[C@@](O)(C(F)(F)F)CC[C@@]2(C)[C@@H]1C/C=C1/C(=O)OC[C@H]1O [Example 48, (S,E)-4-hydroxy-3-(2-((1R,4aR,5R,6R,8aR)-6-hydroxy-2,5,8a-trimethyl-6-(trifluoromethyl)-1,4,4a,5,6,7,8,8a-octahydronaphthalen-1-yl)ethylidene)dihydrofuran-2(3H)-one]
